Reference: ChEMBL document CHEMBL4177717, “7-Methylguanosine monophosphate analogues with 5'-(1,2,3-triazoyl) moiety: Synthesis and evaluation as the inhibitors of cNIIIB nucleotidase” (Bioorg Med Chem, 2018)
Each block holds one molecule with its values, some of them ahead of it. The source made the active and inactive calls. The calls are words filed in the database; no cut-off is given here.

Key:
m7GpppX diphosphatase = molecular target: T1, m7GpppX diphosphatase (Homo sapiens, UniProt Q96C86); assay: Inhibition of human DCPS using m7GMPF as substrate after 30 mins by nucleoside 5'-fluorophosphate probe based HTS assay
T1 sequence (Q96C86 whole entry): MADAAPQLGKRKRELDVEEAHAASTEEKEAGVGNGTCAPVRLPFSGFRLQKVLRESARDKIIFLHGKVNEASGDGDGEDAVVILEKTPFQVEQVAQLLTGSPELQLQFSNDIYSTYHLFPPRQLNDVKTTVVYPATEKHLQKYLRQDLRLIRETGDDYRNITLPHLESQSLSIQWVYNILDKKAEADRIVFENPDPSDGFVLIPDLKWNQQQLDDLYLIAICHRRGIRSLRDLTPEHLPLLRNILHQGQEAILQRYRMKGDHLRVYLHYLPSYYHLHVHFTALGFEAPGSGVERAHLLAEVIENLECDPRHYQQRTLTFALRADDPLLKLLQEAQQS

[1] = molecular target: T2, 7-methylguanosine phosphate-specific 5'-nucleotidase (Homo sapiens) (UniProt Q969T7); assay: Substrate activity at recombinant His6/SUMO-tagged human cN3B (1 to 300 residues) expressed in Escherichia coli BL21(DE3) RIL assessed as compound dephosphorylation at 100 uM up to 150 mins by HPLC method
T2 sequence (whole entry): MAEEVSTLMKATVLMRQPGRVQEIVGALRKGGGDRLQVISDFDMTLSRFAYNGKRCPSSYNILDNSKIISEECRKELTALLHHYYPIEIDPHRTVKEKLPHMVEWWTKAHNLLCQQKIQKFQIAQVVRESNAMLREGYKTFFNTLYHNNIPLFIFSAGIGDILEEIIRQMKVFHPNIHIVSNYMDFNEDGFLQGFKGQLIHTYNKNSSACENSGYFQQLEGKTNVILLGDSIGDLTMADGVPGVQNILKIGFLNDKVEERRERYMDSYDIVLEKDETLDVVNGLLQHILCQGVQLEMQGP

[2] = molecular target: T2, 7-methylguanosine phosphate-specific 5'-nucleotidase (Homo sapiens); assay: Activation of recombinant His6/SUMO-tagged human cN3B (1 to 300 residues) expressed in Escherichia coli BL21(DE3) RIL assessed as increase in dephosphorylation of m7GMP substrate at 200 uM after 45 mins by HPLC method
[3] = molecular target: T2, 7-methylguanosine phosphate-specific 5'-nucleotidase (Homo sapiens); assay: Activation of recombinant His6/SUMO-tagged human cN3B (1 to 300 residues) expressed in Escherichia coli BL21(DE3) RIL assessed as increase in dephosphorylation of m7GMP substrate at 100 uM after 45 mins by malachite green dye based assay
[4] = molecular target: T2, 7-methylguanosine phosphate-specific 5'-nucleotidase (Homo sapiens); assay: Inhibition of recombinant His6/SUMO-tagged human cN3B (1 to 300 residues) expressed in Escherichia coli BL21(DE3) RIL assessed as reduction in dephosphorylation of m7GMP substrate at 200 uM after 45 mins by HPLC method relative to control
[5] = Chemical stability of the compound in pH 6 to 8 PBS at 100 uM after 24 hrs by RP-HPLC analysis; assay type: physicochemical; settings: buffer, pH 6, 24 h
[6] = molecular target: T2, 7-methylguanosine phosphate-specific 5'-nucleotidase (Homo sapiens); assay: Inhibition of recombinant His6/SUMO-tagged human cN3B (1 to 300 residues) expressed in Escherichia coli BL21(DE3) RIL assessed as reduction in dephosphorylation of m7GMP substrate at 200 uM after 45 mins by malachite green dye based assay relative to control
[7] = Chemical stability of the compound in pH >8 solution at 100 uM after 24 hrs by RP-HPLC analysis; assay type: physicochemical
[8] = molecular target: T3, m7GpppX diphosphatase (Homo sapiens) (UniProt Q96C86); assay: Inhibition of human DCPS using m7GMPF assessed as reduction in conversion of m7GpppG to GDP at 200 uM after 45 mins in presence of human cN3B by HPLC method
T3 sequence (whole entry): T1 sequence (Q96C86 whole entry)

[9] = molecular target: T2, 7-methylguanosine phosphate-specific 5'-nucleotidase (Homo sapiens); assay: Inhibition of recombinant His6/SUMO-tagged human cN3B (1 to 300 residues) expressed in Escherichia coli BL21(DE3) RIL assessed as reduction in conversion of m7GMP to m7Guo at 200 uM after 45 mins in presence of human DCPS by HPLC method
[10] = molecular target: T4, 7-methylguanosine phosphate-specific 5'-nucleotidase (Homo sapiens, UniProt Q969T7); assay: Inhibition of recombinant His6/SUMO-tagged human cN3B (1 to 300 residues) expressed in Escherichia coli BL21(DE3) RIL assessed as reduction in dephosphorylation of m7GMP substrate after 45 mins by HPLC method
T4 sequence (Q969T7 whole entry): T2 sequence (whole entry)

[11] = molecular target: Eukaryotic translation initiation factor 4E (Mus musculus, UniProt P63073); assay: Inhibition of fluorescein-labeled m7GDPC4H5 binding to mouse eIF4E (28 to 217 residues) by MST method; settings: read-out: Kd(app)
Homo sapiens = species: Homo sapiens; assay: Selectivity ratio of IC50 for human DCPS to IC50 for recombinant His6/SUMO-tagged human cN3B (1 to 300 residues) expressed in Escherichia coli BL21(DE3) RIL
[12] = molecular target: Eukaryotic translation initiation factor 4E (Homo sapiens, UniProt P06730); assay: Inhibition of eIF4E (unknown origin)
[13] = molecular target: T4, 7-methylguanosine phosphate-specific 5'-nucleotidase; assay: Inhibition of recombinant His6/SUMO-tagged human cN3B (1 to 300 residues) expressed in Escherichia coli BL21(DE3) RIL assessed as reduction in dephosphorylation of m7GMP substrate after 45 mins by malachite green dye based assay
[14] = substrate: C[n+]1cn([C@@H]2O[C@H](Cn3cc(OCP(=O)([O-])O)nn3)[C@@H](O)[C@H]2O)c2nc(N)[nH]c(=O)c21; assay: Substrate activity at recombinant His6/SUMO-tagged human cN3B (1 to 300 residues) expressed in Escherichia coli BL21(DE3) RIL assessed as compound dephosphorylation by measuring ratio of Kcat to Km up to 30 mins by malachite green dye based assay
[15] = substrate: C[n+]1cn([C@@H]2O[C@H](Cn3cc(OCP(=O)([O-])O)nn3)[C@@H](O)[C@H]2O)c2nc(N)[nH]c(=O)c21; assay: Substrate activity at recombinant His6/SUMO-tagged human cN3B (1 to 300 residues) expressed in Escherichia coli BL21(DE3) RIL assessed as compound dephosphorylation up to 30 mins by malachite green dye based assay
[16] = substrate: C[n+]1cn([C@@H]2O[C@H](Cn3cc(OCP(=O)([O-])O)nn3)[C@@H](O)[C@H]2O)c2nc(N)[nH]c(=O)c21; assay: Substrate activity at recombinant His6/SUMO-tagged human cN3B (1 to 300 residues) expressed in Escherichia coli BL21(DE3) RIL assessed as compound dephosphorylation by Vmax up to 30 mins by malachite green dye based assay
[17] = substrate: C[n+]1cn([C@@H]2O[C@H](Cn3cc(OCP(=O)([O-])O)nn3)[C@@H](O)[C@H]2O)c2nc(N)[nH]c(=O)c21; assay: Substrate activity at recombinant His6/SUMO-tagged human cN3B (1 to 300 residues) expressed in Escherichia coli BL21(DE3) RIL assessed as compound dephosphorylation by Kcat up to 30 mins by malachite green dye based assay

Chain of Eukaryotic translation initiation factor 4E (Mus musculus, UniProt P63073) (P63073 whole entry, the tested form may be a part): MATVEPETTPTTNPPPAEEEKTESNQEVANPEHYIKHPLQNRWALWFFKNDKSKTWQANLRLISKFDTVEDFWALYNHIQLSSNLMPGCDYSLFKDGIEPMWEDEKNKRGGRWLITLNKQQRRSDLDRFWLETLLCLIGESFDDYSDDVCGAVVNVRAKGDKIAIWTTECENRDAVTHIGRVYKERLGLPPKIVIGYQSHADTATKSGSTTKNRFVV
Chain of Eukaryotic translation initiation factor 4E (Homo sapiens, UniProt P06730) (P06730 whole entry, the tested form may be a part): as the sequence (P63073 whole entry, the tested form may be a part) above, with T12P, P16T, A17T, D174E counted along it

- inhibition [4]: 67%
- inhibition [8]: inactive
- inhibition [9]: Active
- IC50 [10]: 87.8 µM
- Kd [11]: 5.9 µM
- IC50 (m7GpppX diphosphatase): 244 µM
- Ratio IC50 (Homo sapiens): 3
- Ki [12]: 382 µM
- Stability [5]: Stable
- IC50 [13]: 128 µM
- inhibition [6]: 51%
- Stability [7]: Unstable
- Activity [1]: inactive
Molecule: C[n+]1cn([C@@H]2O[C@H](Cn3cc(P(=O)([O-])O)nn3)[C@@H](O)[C@H]2O)c2nc(N)[nH]c(=O)c21

- Activity [2]: inactive
- Activity [3]: inactive
- inhibition [4]: inactive
- Stability [5]: Stable
- inhibition [6]: inactive
- Stability [7]: Unstable
- Activity [1]: inactive
Molecule: C[n+]1cn([C@@H]2O[C@H](Cn3cc(CP(=O)([O-])O)nn3)[C@@H](O)[C@H]2O)c2nc(N)[nH]c(=O)c21

- Activity [3]: Active
- inhibition [4]: inactive
- Stability [5]: Stable
- Stability [7]: Unstable
- Activity [1]: Active
Molecule: C[n+]1cn([C@@H]2O[C@H](Cn3cc(OCP(=O)([O-])O)nn3)[C@@H](O)[C@H]2O)c2nc(N)[nH]c(=O)c21

More lines, now with the values behind:

Molecule: C[n+]1cn([C@@H]2O[C@H](COP(=O)([O-])OP(=O)(O)O)[C@@H](O)[C@H]2O)c2nc(N)[nH]c(=O)c21
- IC50 (m7GpppX diphosphatase): 1.8 µM

Molecule: C[n+]1cn([C@@H]2O[C@H](COP(=O)([O-])O)[C@@H](O)[C@H]2O)c2nc(N)[nH]c(=O)c21
- IC50 (m7GpppX diphosphatase): 42.2 µM
- Activity [1]: Active

Molecule: C[n+]1cn([C@@H]2O[C@H](Cn3cc(CCP(=O)([O-])O)nn3)[C@@H](O)[C@H]2O)c2nc(N)[nH]c(=O)c21
- Activity [2]: inactive
- Activity [3]: inactive
- inhibition [4]: inactive
- Stability [5]: Stable
- inhibition [6]: inactive
- Stability [7]: Unstable
- Activity [1]: inactive

B1: 7-methylguanosine phosphate-specific 5'-nucleotidase (Homo sapiens), Q969T7 (protein)
chain: T2 sequence (whole entry)
- kcat/Km [14]: 11000 M⁻¹ s⁻¹
- Km [15]: 82 µM
- Vmax [16]: 1.6 µmol/min/mg
- kcat [17]: 1.16 s⁻¹
